PubChem BioAssay AID248 (DTP/NCI, 2004)
Several values for one entry are separate records, joined by “and”; a condition that tells them apart may be missing. Equal values may be shown once. Inconclusive results and toxic doses are left out. No stated cut-off is given here; in the data, active means T/C of 150% or more; inactive means T/C below 125%.

Test system: L1210 leukemia ip in BDF1 mice, survival T/C
Assay: NCI In Vivo Anticancer Drug Screen. Data for tumor model L1210 Leukemia (intraperitoneal) in B6D2F1 (BDF1) mice
Settings: endpoint: mean survival time, higher = longer survival
Summary of the method: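 Transplantable tumor model; survival measured in treated vs vehicle control mice. Value = treated/control.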

[1] = dose: 100.0 mg/kg/injection, schedule: Q01DX001 (ip), vehicle: Klucel (hydroxypropylcellulose) (HPC)
[2] = dose: 100.0 mg/kg/injection, schedule: Q01DX009 (ip), vehicle: water
[3] = dose: 100.0 mg/kg/injection, schedule: Q04DX003 (ip), vehicle: Klucel (hydroxypropylcellulose) (HPC)
[4] = dose: 100.0 mg/kg/injection, schedule: Q04DX003 (ip), vehicle: water
[5] = dose: 200.0 mg/kg/injection, schedule: Q01DX001 (ip), vehicle: Klucel (hydroxypropylcellulose) (HPC)
[6] = dose: 200.0 mg/kg/injection, schedule: Q01DX009 (ip), vehicle: water
[7] = dose: 200.0 mg/kg/injection, schedule: Q04DX003 (ip), vehicle: Klucel (hydroxypropylcellulose) (HPC)
[8] = dose: 400.0 mg/kg/injection, schedule: Q01DX001 (ip), vehicle: Klucel (hydroxypropylcellulose) (HPC)
[9] = dose: 400.0 mg/kg/injection, schedule: Q04DX003 (ip), vehicle: Klucel (hydroxypropylcellulose) (HPC)
[10] = dose: 400.0 mg/kg/injection, schedule: Q04DX003 (ip), vehicle: water
[11] = dose: 100.0 mg/kg/injection, schedule: Q04DX003 (ip), vehicle: saline with Tween-80
[12] = dose: 200.0 mg/kg/injection, schedule: Q04DX003 (ip), vehicle: saline with Tween-80
[13] = dose: 400.0 mg/kg/injection, schedule: Q04DX003 (ip), vehicle: saline with Tween-80
[14] = dose: 25.0 mg/kg/injection, schedule: Q01DX009 (ip), vehicle: Klucel (hydroxypropylcellulose) (HPC)
[15] = dose: 100.0 mg/kg/injection, schedule: Q01DX009 (ip), vehicle: Klucel (hydroxypropylcellulose) (HPC)
[16] = dose: 100.0 mg/kg/injection, schedule: Q01DX001 (ip), vehicle: saline with Tween-80
[17] = dose: 200.0 mg/kg/injection, schedule: Q01DX001 (ip), vehicle: saline with Tween-80
[18] = dose: 400.0 mg/kg/injection, schedule: Q01DX001 (ip), vehicle: saline with Tween-80
[19] = dose: 200.0 mg/kg/injection, schedule: Q01DX009 (ip), vehicle: Klucel (hydroxypropylcellulose) (HPC)
[20] = dose: 400.0 mg/kg/injection, schedule: Q01DX009 (ip), vehicle: Klucel (hydroxypropylcellulose) (HPC)
[21] = dose: 100.0 mg/kg/injection, schedule: Q04DX002 (ip), vehicle: Klucel (hydroxypropylcellulose) (HPC)
[22] = dose: 100.0 mg/kg/injection, schedule: Q01DX009 (ip), vehicle: saline with Tween-80
[23] = dose: 200.0 mg/kg/injection, schedule: Q01DX009 (ip), vehicle: saline with Tween-80
[24] = dose: 400.0 mg/kg/injection, schedule: Q01DX009 (ip), vehicle: saline with Tween-80
[25] = dose: 200.0 mg/kg/injection, schedule: Q04DX002 (ip), vehicle: Klucel (hydroxypropylcellulose) (HPC)
[26] = dose: 400.0 mg/kg/injection, schedule: Q04DX002 (ip), vehicle: Klucel (hydroxypropylcellulose) (HPC)

Measured: T/C

CSCC(C(N)=O)c1cc(Cl)ccc1Cl (stereo not drawn)
inactive: [1] 107 % of control | [2] 100 % of control | [3] 102 % of control | [4] 100 % of control | [5] 103 % of control | [6] 94 % of control | [7] 104 % of control | dose: 200.0 mg/kg/injection, schedule: Q04DX003 (ip), vehicle: water 100 % of control | [8] 102 % of control | dose: 400.0 mg/kg/injection, schedule: Q01DX009 (ip), vehicle: water 94 % of control | [9] 96 % of control | [10] 90 % of control

CC(C)CCC[C@@H](C)[C@H]1CC[C@H]2[C@@H]3CC=C4C(C)(C)C(=O)CC[C@]4(C)[C@H]3CC[C@]12C
inactive: dose: 100.0 mg/kg/injection, schedule: Q01DX001 (sc), vehicle: steriod suspending solution 97 % of control | dose: 200.0 mg/kg/injection, schedule: Q01DX001 (sc), vehicle: steriod suspending solution 98 % of control | dose: 400.0 mg/kg/injection, schedule: Q01DX001 (sc), vehicle: steriod suspending solution 97 % of control

COc1cc(Oc2cc(OC)c(OC)c(OC)c2)cc(OC)c1OC
inactive: [11] 97 % of control | [12] 101 % of control | [13] 97 % of control

CC(C)S(=O)(=O)/C(Cl)=C(/Cl)C(Cl)=C(Cl)Cl
inactive: dose: 12.5 mg/kg/injection, schedule: Q01DX009 (ip), vehicle: Klucel (hydroxypropylcellulose) (HPC) 106 % of control | [14] 101 % of control | dose: 50.0 mg/kg/injection, schedule: Q01DX009 (ip), vehicle: Klucel (hydroxypropylcellulose) (HPC) 95 % of control | [15] 87 % of control

CCCCC(C)(O)c1cc(OC)cc(OC)c1 (stereo not drawn)
inactive: [16] 104 % of control | [17] 97 % of control | [18] 87 % of control

O=C1c2ccccc2C(=O)c2c(Nc3ccc(CCO)cc3)ccc(O)c21
inactive: [15] 103 % of control | [3] 102 % of control | [19] 97 % of control | [7] 100 % of control | [20] 101 % of control | [9] 102 % of control

CCc1oc2cc([N+](=O)[O-])ccc2c1C#N
inactive: dose: 25.0 mg/kg/injection, schedule: Q04DX002 (ip), vehicle: Klucel (hydroxypropylcellulose) (HPC) 86 % of control | dose: 50.0 mg/kg/injection, schedule: Q04DX002 (ip), vehicle: Klucel (hydroxypropylcellulose) (HPC) 89 % of control | [15] 97 % of control | [21] 93 % of control | [19] 101 % of control | [20] 97 % of control

Cc1cc2ccccc2c(N=Cc2cc(Br)cc(Br)c2O)c1C#N
inactive: [11] 92 % of control and 98 % of control and 90 % of control | dose: 200.0 mg/kg/injection, schedule: Q01DX003 (ip), vehicle: saline with Tween-80 87 % of control | [12] 93 % of control and 98 % of control and 90 % of control | [13] 97 % of control and 101 % of control and 104 % of control

O=C(O)c1cc(/C=C/c2ccccc2)ccc1[N+](=O)[O-]
inactive: dose: 100.0 mg/kg/injection, schedule: Q04DX003 (ip), vehicle: saline 103 % of control | dose: 200.0 mg/kg/injection, schedule: Q04DX003 (ip), vehicle: saline 97 % of control | dose: 400.0 mg/kg/injection, schedule: Q04DX003 (ip), vehicle: saline 100 % of control

CC(=O)Nc1ncc(CCC2OCCO2)c(=O)[nH]1
inactive: [1] 95 % of control | [5] 97 % of control | [8] 98 % of control

CSC(=N)c1cccc(OCCCOc2ccccc2)c1
inactive: dose: 25.0 mg/kg/injection, schedule: Q01DX009 (ip), vehicle: saline with Tween-80 94 % of control | dose: 50.0 mg/kg/injection, schedule: Q01DX009 (ip), vehicle: saline with Tween-80 90 % of control | [22] 90 % of control | [23] 88 % of control

c1ccc(N2CCN(c3ccccc3)C2c2ccc3c(c2)CCC3)cc1
inactive: [11] 92 % of control | [12] 90 % of control | [13] 104 % of control

CCOc1c(OC)cc(/C=C/C(=O)NC2CC2)cc1OC
inactive: [14] 88 % of control | [15] 101 % of control and 88 % of control

O=c1cc(C(F)(F)F)[nH]c2ccc(F)cc12
inactive: dose: 5.0 mg/kg/injection, schedule: Q04DX003 (ip), vehicle: saline with Tween-80 102 % of control | dose: 10.0 mg/kg/injection, schedule: Q04DX003 (ip), vehicle: saline with Tween-80 90 % of control | dose: 20.0 mg/kg/injection, schedule: Q04DX003 (ip), vehicle: saline with Tween-80 97 % of control

[N-]=[N+]=Nc1c2ccccc2nc2ccccc12
inactive: dose: 2.0 mg/kg/injection, schedule: Q01DX001 (ip), vehicle: saline 92 % of control | dose: 4.0 mg/kg/injection, schedule: Q01DX001 (ip), vehicle: saline 94 % of control | dose: 8.0 mg/kg/injection, schedule: Q01DX001 (ip), vehicle: saline 103 % of control

CSc1nc(Cl)cc(Sc2nc(N)nc3nc[nH]c23)n1
inactive: dose: 100.0 mg/kg/injection, schedule: Q01DX Z (ip), vehicle: methylcellulose (MC) 110 % of control

Cc1cc(OC(=O)Nc2cccc(Cl)c2)ccc1[N+](=O)[O-]
inactive: [15] 101 % of control | [3] 90 % of control | [19] 101 % of control | [7] 95 % of control | [9] 90 % of control

CC(=O)OC1CCC2(C)C(=CCC3C2CCC2(C)C3CC3OC4(CCC(C)CN4C(C)=O)C(C)C32)C1 (stereo not drawn)
inactive: [16] 98 % of control | [17] 95 % of control | [18] 95 % of control

NC(=S)NS(=O)(=O)c1ccc(N)cc1
inactive: dose: 89.0 mg/kg/injection, schedule: Q01DX001 (ip), vehicle: saline 97 % of control and 98 % of control | dose: 100.0 mg/kg/injection, schedule: Q01DX001 (ip), vehicle: saline 104 % of control | dose: 133.0 mg/kg/injection, schedule: Q01DX001 (ip), vehicle: saline 98 % of control and 104 % of control | dose: 200.0 mg/kg/injection, schedule: Q01DX001 (ip), vehicle: saline 96 % of control and 92 % of control | dose: 300.0 mg/kg/injection, schedule: Q01DX001 (ip), vehicle: saline 93 % of control and 102 % of control | dose: 400.0 mg/kg/injection, schedule: Q01DX001 (ip), vehicle: saline 98 % of control

COc1ccc(Cl)cc1NC(=O)Oc1ccc2ccccc2c1
inactive: [16] 89 % of control | [22] 98 % of control and 100 % of control | [11] 91 % of control | [17] 100 % of control | [23] 98 % of control and 92 % of control | [12] 96 % of control | [18] 96 % of control | [24] 100 % of control and 91 % of control | [13] 103 % of control

Cn1cccc1/C=N/O
inactive: [21] 98 % of control | [25] 98 % of control | [26] 117 % of control

CCN(CC)C(=O)Oc1ccc(C(C)=O)cc1
inactive: dose: 100.0 mg/kg/injection, schedule: Q04DX002 (ip), vehicle: saline with Tween-80 103 % of control | dose: 200.0 mg/kg/injection, schedule: Q04DX002 (ip), vehicle: saline with Tween-80 100 % of control | dose: 400.0 mg/kg/injection, schedule: Q04DX002 (ip), vehicle: saline with Tween-80 114 % of control

COc1ccc(OC)c(NC(=S)NNC(=S)NNc2ccccc2)c1
inactive: [21] 101 % of control | [25] 104 % of control | [26] 93 % of control

CS(=O)(=O)c1ncc2cnccn12
inactive: [2] 101 % of control | [4] 109 % of control | [6] 109 % of control | [10] 110 % of control

CCC(=O)OCC(C)([N+](=O)[O-])[N+](=O)[O-]
inactive: [22] 106 % of control | [11] 97 % of control | [23] 97 % of control | [12] 97 % of control | [24] 101 % of control | [13] 109 % of control

COc1ccc(C(=O)N/N=C/c2ccccc2Cl)cc1
inactive: [15] 106 % of control | [19] 97 % of control | [20] 102 % of control
